Assay results as given in ChEMBL document CHEMBL4257578, “6'-Fluoro-3-deazaneplanocin: Synthesis and antiviral properties, including Ebola” (Bioorg Med Chem Lett, 2018).
The source made the active and inactive calls. The rule behind the calls is not given here.

Assays:
[1] = system: Japanese encephalitis virus; assay: Antiviral activity against Japanese […] encephalitis virus infected in African green monkey Vero 76 cells; type: functional, organism-based
Punta Toro virus = assay: Antiviral activity against Punta Toro virus infected in African green monkey Vero 76 cells; type: functional, organism-based
[2] = target: AdoHcyase_NAD domain-containing protein (Oryctolagus cuniculus, UniProt G1SVH0); assay: Inhibition of SAHase from rabbit erythrocytes using S-adenosyl-L-homocysteine as substrate preincubated for 5 mins followed by substrate addition and measured after 1 hr by Measure-iTTM thiol quantitation reagent based assay
Chain of AdoHcyase_NAD domain-containing protein (G1SVH0 whole entry, the tested form may be a part): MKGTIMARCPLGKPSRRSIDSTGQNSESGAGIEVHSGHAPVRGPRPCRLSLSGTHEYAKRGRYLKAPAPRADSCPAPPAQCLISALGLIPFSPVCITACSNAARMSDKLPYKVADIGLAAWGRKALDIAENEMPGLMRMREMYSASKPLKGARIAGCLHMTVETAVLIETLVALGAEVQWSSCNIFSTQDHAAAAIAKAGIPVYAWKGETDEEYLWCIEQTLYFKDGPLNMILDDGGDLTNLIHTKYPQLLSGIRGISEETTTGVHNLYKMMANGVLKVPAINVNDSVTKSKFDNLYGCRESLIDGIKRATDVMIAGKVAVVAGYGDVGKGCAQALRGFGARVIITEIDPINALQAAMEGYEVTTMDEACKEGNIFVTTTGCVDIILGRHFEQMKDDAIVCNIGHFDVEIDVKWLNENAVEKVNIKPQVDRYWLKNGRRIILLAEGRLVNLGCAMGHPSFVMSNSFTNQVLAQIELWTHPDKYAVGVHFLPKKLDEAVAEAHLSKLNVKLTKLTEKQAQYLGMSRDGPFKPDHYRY

West Nile virus = assay: Antiviral activity against West Nile virus infected in African green monkey Vero 76 cells; type: functional, organism-based
[3] = Cytotoxicity against MDCK cells assessed as reduction in cell viability; type: cell-based, Canis lupus familiaris; details: dog
Chikungunya virus = assay: Antiviral activity against Chikungunya virus infected in African green monkey Vero 76 cells; type: functional, organism-based
Influenza A virus = assay: Antiviral activity against Influenza A virus (H1N1) infected in MDCK cells; type: functional, organism-based
Poliovirus 1 = assay: Antiviral activity against Human poliovirus 1 infected in African green monkey Vero 76 cells; type: functional, organism-based
Hepatitis B virus = assay: Antiviral activity against Hepatitis B virus infected in human HepG2.2.15 cells; type: functional, organism-based
[4] = Cytotoxicity against African green monkey Vero 76 cells assessed as reduction in cell viability; type: cell-based; details: chlorocebus sabaeus
[5] = Selectivity index, ratio of CC50 for African green monkey Vero 76 cells to EC50 for measles virus; type: toxicity; details: read-out: Ratio CC50/EC50
Usutu virus = assay: Antiviral activity against Usutu virus infected in African green monkey Vero 76 cells; type: functional, organism-based
Yellow fever virus = assay: Antiviral activity against Yellow fever virus infected in African green monkey Vero cells; type: functional, organism-based
[6] = Selectivity index, ratio of CC50 for African green monkey Vero cells to EC50 for Ebolavirus; type: toxicity; details: read-out: Ratio CC50/EC50
Human betaherpesvirus 5 = assay: Antiviral activity against Human cytomegalovirus infected in human HFF cells; type: functional, organism-based
[7] = Selectivity index, ratio of CC50 for African green monkey Vero cells to EC50 for Pichinde virus; type: toxicity; details: read-out: Ratio CC50/EC50
Measles morbillivirus = assay: Antiviral activity against Measles virus infected in African green monkey Vero 76 cells; type: functional, organism-based
Norovirus = assay: Antiviral activity against Norovirus infected in human HG23 cells; type: functional, organism-based
[8] = Cytotoxicity against African green monkey Vero cells assessed as reduction in cell viability; type: cell-based; details: chlorocebus sabaeus
Pichinde virus = assay: Antiviral activity against Pichinde virus infected in African green monkey Vero; type: functional, organism-based
Human adenovirus 5 = assay: Antiviral activity against Human adenovirus 5 infected in human A549 cells; type: functional, organism-based
Tacaribe virus = assay: Antiviral activity against Tacaribe virus infected in African green monkey Vero cells; type: functional, organism-based; details: Mammarenavirus tacaribeense
Rift Valley fever virus = assay: Antiviral activity against Rift Valley fever virus infected in African green monkey Vero 76 cells; type: functional, organism-based
[9] = system: Venezuelan equine encephalitis virus; assay: Antiviral activity against Venezuelan equine encephalitis virus infected in African green monkey Vero 76 cells; type: functional, organism-based
dengue virus type 2 = assay: Antiviral activity against Dengue virus 2 infected in African green monkey Vero 76 cells; type: functional, organism-based
Ebolavirus [10] = assay: Antiviral activity against Ebolavirus infected in African green monkey Vero cells; type: functional, cell-based; details: Orthoebolavirus
[11] = Selectivity index, ratio of CC50 for MDCK cells to EC50 for Influenza A virus (H1N1); type: toxicity; details: dog, read-out: Ratio CC50/EC50
[12] = Cytotoxicity against African green monkey Vero E6 cells assessed as reduction in cell viability; type: cell-based; details: chlorocebus sabaeus, Vero E6 cells (Vero C1008)
Ebolavirus [13] = assay: Antiviral activity against Ebolavirus subtype Zaire infected in African green monkey Vero E6 cells; type: functional, Ebola virus - Zaire (1995); details: Orthoebolavirus, Vero C1008
[14] = Selectivity index, ratio of CC50 for African green monkey Vero E6 cells to EC50 for Ebolavirus subtype Zaire; type: toxicity, Vero C1008; details: read-out: Ratio CC50/EC50

With `Nc1cccc2c1ncn2[C@@H]1C(F)=C(CO)[C@@H](O)[C@H]1O` the Activity [1] was “inactive”, the Activity (Punta Toro virus) was “inactive” and the IC50 [2] was 8.69 nM. The Activity (West Nile virus) was “inactive”, the CC50 [3] was 133 µM and the Activity (Chikungunya virus) was “inactive”. The EC50 (Influenza A virus) was 20.2 µM, the Activity (Poliovirus 1) was “inactive” and the Activity (Hepatitis B virus) was “inactive”. For the same compound, the CC50 [4] was 115 µM, the selectivity ratio [5] was over 320 and the Activity (Usutu virus) was “inactive”. For the same compound, the Activity (Yellow fever virus) was “inactive”, the selectivity ratio [6] was over 347 and the Activity (Human betaherpesvirus 5) was “inactive”. For the same compound, the selectivity ratio [7] was over 6.3, the EC50 (Measles morbillivirus) was under 360 nM and the Activity (Norovirus) was “inactive”. For the same compound, the CC50 [8] was 125 to 360 µM, the EC50 (Pichinde virus) was 57.6 µM and the Activity (Human adenovirus 5) was “inactive”. The Activity (Tacaribe virus) was “inactive”, the Activity (Rift Valley fever virus) was “inactive” and the Activity [9] was “inactive”. For the same compound, the Activity (dengue virus type 2) was “inactive”, the EC50 (Ebolavirus [10]) was under 360 nM and the selectivity ratio [11] was 6.6.
For `Nc1ccnc2c1ncn2[C@@H]1C=C(CO)[C@@H](O)[C@H]1O`, the CC50 [12] was 60 µM, the EC50 (Ebolavirus [13]) was 4 µM and the selectivity ratio [14] was 15.
Compound `Nc1cccc2c1ncn2[C@@H]1C=C(CO)[C@@H](O)[C@H]1O` has a CC50 [12] of over 1700 µM, an EC50 (Ebolavirus [13]) of 2 µM and a selectivity ratio [14] of over 850.
